Measurements: ChEMBL document CHEMBL1135852, “Inhibitors of NF-kappaB signaling: design and synthesis of a biotinylated isopanepoxydone affinity reagent” (2002)

Legend:
HEK293 = experiment: Compound was tested for NF-kB inhibitory activity in HEK 293 cells; assay type: functional, Homo sapiens
HeLa = experiment: Compound was tested for NF-kB inhibitory activity in Hela M cells; assay type: functional, Homo sapiens

Row | Compound | Inhibitory activity (HEK293) | Inhibitory activity (HeLa)
1 | CC(=O)O[C@@H]1C(/C=C/C(C)(C)O)=CC(=O)[C@@H]2O[C@H]12 | <=0 | <=0
2 | CC(C)(O)/C=C/C1=C[C@@H](O)[C@@H]2O[C@@H]2C1=O | 63 | >=100
3 | CC(=O)O[C@@H]1C(/C=C/C(C)(C)O)=C[C@@H](O)[C@@H]2O[C@@H]21 | 58 | >=100
4 | CC(=O)O[C@H]1C(/C=C/C(C)(O)CCCCCCCCN2C(=O)c3ccccc3C2=O)=CC(=O)[C@@H]2O[C@@H]21 (stereo partly drawn) | <=0 | <=0
5 | CC(C)(O)/C=C/C1=CC(=O)[C@@H]2O[C@@H]2[C@H]1O | 4 | <=0
6 | CC(=O)O[C@H]1C(/C=C/C(C)(C)O)=CC(=O)[C@@H]2O[C@@H]21 | <=0 | <=0
7 | CC(C)(O)/C=C/C1=CC(=O)[C@@H]2O[C@@H]2C1=O | <=0 | <=0
8 | CC(C)=C[C@@H](O)C1=C[C@@H](O)[C@@H]2O[C@@H]2C1=O | <=0 | <=0
9 | CC(C)=C[C@H](O)C1=C[C@@H](O)[C@@H]2O[C@@H]2C1=O [PANEPOXYDONE] | <=0 | <=0
10 | CC(C)=CC(=O)C1=C[C@@H](O)[C@@H]2O[C@@H]2[C@@H]1O | 65 | 85
11 | CC(=O)O[C@H]1C(/C=C/C(C)(C)O)=C[C@@H](O)[C@@H]2O[C@@H]21 | 49 | >=100
12 | CC(C)(O)/C=C/C1=CC(=O)[C@@H]2O[C@@H]2[C@@H]1O | – | >=100
